Results: PubChem BioAssay AID248 (DTP/NCI, 2004)
Toxic doses and inconclusive results are not listed. No stated cut-off is given here; in the data, active means T/C of 150% or more; inactive means T/C below 125%.

Test system: L1210 leukemia ip in BDF1 mice, survival T/C
Experiment: NCI In Vivo Anticancer Drug Screen. Data for tumor model L1210 Leukemia (intraperitoneal) in B6D2F1 (BDF1) mice
Conditions: higher = longer survival
Procedure, shortened: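 Antitumor effect is assessed in tumor-bearing animals. Survival in the compound arm is compared with a vehicle-dosed control arm and expressed as their quotient.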

[1] = endpoint: mean survival time, dose: 100.0 mg/kg/injection, schedule: Q01DX001 (ip), vehicle: Klucel (hydroxypropylcellulose) (HPC)
[2] = endpoint: mean survival time, dose: 200.0 mg/kg/injection, schedule: Q01DX001 (ip), vehicle: Klucel (hydroxypropylcellulose) (HPC)
[3] = endpoint: mean survival time, dose: 400.0 mg/kg/injection, schedule: Q01DX001 (ip), vehicle: Klucel (hydroxypropylcellulose) (HPC)
[4] = endpoint: mean survival time, dose: 100.0 mg/kg/injection, schedule: Q01DX009 (ip), vehicle: saline with Tween-80
[5] = endpoint: mean survival time, dose: 200.0 mg/kg/injection, schedule: Q01DX009 (ip), vehicle: saline with Tween-80
[6] = endpoint: mean survival time, dose: 400.0 mg/kg/injection, schedule: Q01DX009 (ip), vehicle: saline with Tween-80
[7] = endpoint: mean survival time, dose: 100.0 mg/kg/injection, schedule: Q04DX002 (ip), vehicle: saline with Tween-80
[8] = endpoint: mean survival time, dose: 100.0 mg/kg/injection, schedule: Q04DX002 (ip), vehicle: Klucel (hydroxypropylcellulose) (HPC)
[9] = endpoint: mean survival time, dose: 200.0 mg/kg/injection, schedule: Q04DX002 (ip), vehicle: Klucel (hydroxypropylcellulose) (HPC)
[10] = endpoint: mean survival time, dose: 400.0 mg/kg/injection, schedule: Q04DX002 (ip), vehicle: Klucel (hydroxypropylcellulose) (HPC)
[11] = endpoint: mean survival time, dose: 100.0 mg/kg/injection, schedule: Q04DX003 (ip), vehicle: saline with Tween-80
[12] = endpoint: mean survival time, dose: 200.0 mg/kg/injection, schedule: Q04DX003 (ip), vehicle: saline with Tween-80
[13] = endpoint: mean survival time, dose: 400.0 mg/kg/injection, schedule: Q04DX003 (ip), vehicle: saline with Tween-80

Measured: T/C

O=[N+]([O-])c1ccc(N/N=C/c2cccnc2)cc1
inactive: [1] 96 % of control | endpoint: mean survival time, dose: 100.0 mg/kg/injection, schedule: Q01DX009 (ip), vehicle: Klucel (hydroxypropylcellulose) (HPC) 92 % of control | [2] 95 % of control | endpoint: mean survival time, dose: 200.0 mg/kg/injection, schedule: Q01DX009 (ip), vehicle: Klucel (hydroxypropylcellulose) (HPC) 90 % of control | [3] 88 % of control | endpoint: mean survival time, dose: 400.0 mg/kg/injection, schedule: Q01DX009 (ip), vehicle: Klucel (hydroxypropylcellulose) (HPC) 101 % of control

COc1c(C)c(Br)c(OC)c2ccccc12
inactive: [4] 89 % of control | [5] 94 % of control | [6] 94 % of control

CCCC(=O)Nc1ncnc2c1ncn2C1OC2COP(=O)(O)OC2C1OC(=O)CCC (centres undefined)
inactive: endpoint: mean survival time, dose: 12.5 mg/kg/injection, schedule: Q01DX009 (ip), vehicle: saline 105 % of control | endpoint: mean survival time, dose: 25.0 mg/kg/injection, schedule: Q01DX009 (ip), vehicle: saline 104 % of control | endpoint: mean survival time, dose: 50.0 mg/kg/injection, schedule: Q01DX009 (ip), vehicle: saline 102 % of control | endpoint: mean survival time, dose: 100.0 mg/kg/injection, schedule: Q01DX009 (ip), vehicle: saline 102 % of control | endpoint: mean survival time, dose: 200.0 mg/kg/injection, schedule: Q01DX009 (ip), vehicle: saline 100 % of control | endpoint: mean survival time, dose: 400.0 mg/kg/injection, schedule: Q01DX009 (ip), vehicle: saline 104 % of control | endpoint: median survival time, dose: 25.0 mg/kg/injection, schedule: Q01DX009 (ip), vehicle: saline 100 % of control | endpoint: median survival time, dose: 50.0 mg/kg/injection, schedule: Q01DX001 (ip), vehicle: saline 100 % of control | endpoint: median survival time, dose: 50.0 mg/kg/injection, schedule: Q01DX009 (ip), vehicle: saline 100 % of control | endpoint: median survival time, dose: 100.0 mg/kg/injection, schedule: Q01DX001 (ip), vehicle: saline 100 % of control | endpoint: median survival time, dose: 100.0 mg/kg/injection, schedule: Q01DX009 (ip), vehicle: saline 100 % of control | endpoint: median survival time, dose: 200.0 mg/kg/injection, schedule: Q01DX001 (ip), vehicle: saline 100 % of control | endpoint: median survival time, dose: 200.0 mg/kg/injection, schedule: Q01DX009 (ip), vehicle: saline 100 % of control | endpoint: median survival time, dose: 400.0 mg/kg/injection, schedule: Q01DX001 (ip), vehicle: saline 100 % of control | endpoint: median survival time, dose: 400.0 mg/kg/injection, schedule: Q01DX009 (ip), vehicle: saline 100 % of control

C[CH2][Ge]([CH2]C)([CH2]C)[CH2]CO
inactive: endpoint: mean survival time, dose: 5.0 mg/kg/injection, schedule: Q04DX002 (ip), vehicle: saline with Tween-80 103 % of control | endpoint: mean survival time, dose: 10.0 mg/kg/injection, schedule: Q04DX002 (ip), vehicle: saline with Tween-80 106 % of control | endpoint: mean survival time, dose: 20.0 mg/kg/injection, schedule: Q04DX002 (ip), vehicle: saline with Tween-80 103 % of control

O=S(=O)(ON1C=CC=CC1)ON1C=CC=CC1
inactive: endpoint: mean survival time, dose: 25.0 mg/kg/injection, schedule: Q04DX002 (ip), vehicle: saline with Tween-80 106 % of control | endpoint: mean survival time, dose: 50.0 mg/kg/injection, schedule: Q04DX002 (ip), vehicle: saline with Tween-80 95 % of control | [7] 106 % of control

CC(C)CC1NC(=O)C(NC(=O)C(Cc2ccccc2)N(C)C)C(C(C)C)Oc2ccc(cc2)/C=C\NC1=O (centres undefined)
inactive: endpoint: mean survival time, dose: 50.0 mg/kg/injection, schedule: Q01DX001 (ip), vehicle: Klucel (hydroxypropylcellulose) (HPC) 90 % of control | [1] 90 % of control | [2] 93 % of control

Oc1ccc2ccnc(Cc3ccc(Br)cc3)c2c1
inactive: [2] 89 % of control | [3] 89 % of control

O=C1/C(=C\c2ccc(OCc3ccccc3)c(OCc3ccccc3)c2)N2CCC1CC2
inactive: [8] 102 % of control | [9] 115 % of control | [10] 105 % of control

NC(=O)/C=C/c1cccnc1
inactive: endpoint: mean survival time, dose: 100.0 mg/kg/injection, schedule: Q04DX003 (ip), vehicle: saline 91 % of control | endpoint: mean survival time, dose: 200.0 mg/kg/injection, schedule: Q04DX003 (ip), vehicle: saline 98 % of control | endpoint: mean survival time, dose: 400.0 mg/kg/injection, schedule: Q04DX003 (ip), vehicle: saline 96 % of control

COc1cc2c(cc1O)C(=O)CCCC2
inactive: endpoint: mean survival time, dose: 100.0 mg/kg/injection, schedule: Q01DX009 (ip), vehicle: saline sonified 94 % of control | endpoint: mean survival time, dose: 100.0 mg/kg/injection, schedule: Q04DX003 (ip), vehicle: Klucel (hydroxypropylcellulose) (HPC) 94 % of control | endpoint: mean survival time, dose: 200.0 mg/kg/injection, schedule: Q01DX009 (ip), vehicle: saline sonified 103 % of control | endpoint: mean survival time, dose: 200.0 mg/kg/injection, schedule: Q04DX003 (ip), vehicle: Klucel (hydroxypropylcellulose) (HPC) 92 % of control | endpoint: mean survival time, dose: 400.0 mg/kg/injection, schedule: Q01DX009 (ip), vehicle: saline sonified 90 % of control | endpoint: mean survival time, dose: 400.0 mg/kg/injection, schedule: Q04DX003 (ip), vehicle: Klucel (hydroxypropylcellulose) (HPC) 100 % of control

O=C(Nc1ccccc1F)OCCc1ccccn1
inactive: [8] 102 % of control | [9] 105 % of control | [10] 91 % of control

CCOC(=O)c1cc(N)c(N2CCCC2)cc1Cl
inactive: [4] 109 % of control | [11] 93 % of control | [5] 98 % of control | [12] 93 % of control | [6] 95 % of control | [13] 93 % of control

O=S(=O)(NNS(=O)(=O)c1ccccc1)c1ccccc1
inactive: endpoint: mean survival time, dose: 100.0 mg/kg/injection, schedule: Q01DX001 (ip), vehicle: saline with Tween-80 101 % of control | endpoint: mean survival time, dose: 200.0 mg/kg/injection, schedule: Q01DX001 (ip), vehicle: saline with Tween-80 94 % of control | endpoint: mean survival time, dose: 400.0 mg/kg/injection, schedule: Q01DX001 (ip), vehicle: saline with Tween-80 88 % of control

Nc1nc2c(ncn2-c2ccc(NS(=O)(=O)c3cccc(S(=O)(=O)F)c3)cc2)c(=O)[nH]1
inactive: endpoint: mean survival time, dose: 75.0 mg/kg/injection, schedule: Q01DX001 (ip), vehicle: Klucel (hydroxypropylcellulose) (HPC) 97 % of control | endpoint: mean survival time, dose: 300.0 mg/kg/injection, schedule: Q01DX001 (ip), vehicle: Klucel (hydroxypropylcellulose) (HPC) 88 % of control

OC12Cc3ccccc3C1=NN(c1ccccc1)C2c1ccccc1 (centres undefined)
inactive: endpoint: mean survival time, dose: 25.0 mg/kg/injection, schedule: Q01DX009 (ip), vehicle: saline with Tween-80 101 % of control | endpoint: mean survival time, dose: 50.0 mg/kg/injection, schedule: Q01DX009 (ip), vehicle: saline with Tween-80 104 % of control | [4] 90 % of control | [11] 93 % of control | [12] 97 % of control | [13] 91 % of control

O=C1OC2C(O)C(CO)OC2n2c1cc(=O)[nH]c2=O (centres undefined)
inactive: endpoint: mean survival time, dose: 100.0 mg/kg/injection, schedule: Q01DX005 (ip), vehicle: saline 111 % of control | endpoint: mean survival time, dose: 200.0 mg/kg/injection, schedule: Q01DX005 (ip), vehicle: saline 104 % of control

COC(=O)N1C=CC2C=CC1C(C#N)(C#N)C2(C#N)C#N (centres undefined)
inactive: endpoint: mean survival time, dose: 12.5 mg/kg/injection, schedule: Q04DX002 (ip), vehicle: Klucel (hydroxypropylcellulose) (HPC) 98 % of control | endpoint: mean survival time, dose: 25.0 mg/kg/injection, schedule: Q04DX002 (ip), vehicle: Klucel (hydroxypropylcellulose) (HPC) 98 % of control | endpoint: mean survival time, dose: 50.0 mg/kg/injection, schedule: Q04DX002 (ip), vehicle: Klucel (hydroxypropylcellulose) (HPC) 110 % of control

CCS(=O)(=O)CS(=O)(=O)c1ccc(C)cc1
inactive: [1] 103 % of control | [2] 103 % of control | [3] 103 % of control

CC1=CC(C)=NC2NNC(=O)C12 (centres undefined)
inactive: [7] 100 % of control | endpoint: mean survival time, dose: 200.0 mg/kg/injection, schedule: Q04DX002 (ip), vehicle: saline with Tween-80 103 % of control | endpoint: mean survival time, dose: 400.0 mg/kg/injection, schedule: Q04DX002 (ip), vehicle: saline with Tween-80 96 % of control

Cc1ccc(Nc2cc(N)nc(N)n2)cc1
inactive: endpoint: mean survival time, dose: 25.0 mg/kg/injection, schedule: Q01DX Z (ip), vehicle: methylcellulose (MC) 100 % of control

Cc1cc(C(=O)NNC(C)Cc2ccccc2)no1 (centres undefined)
inactive: endpoint: mean survival time, dose: 4.6 mg/kg/injection, schedule: Q01DX009 (ip), vehicle: Klucel (hydroxypropylcellulose) (HPC) 94 % of control | endpoint: mean survival time, dose: 9.3 mg/kg/injection, schedule: Q01DX009 (ip), vehicle: Klucel (hydroxypropylcellulose) (HPC) 94 % of control | endpoint: mean survival time, dose: 18.75 mg/kg/injection, schedule: Q01DX009 (ip), vehicle: Klucel (hydroxypropylcellulose) (HPC) 97 % of control | endpoint: mean survival time, dose: 37.5 mg/kg/injection, schedule: Q01DX009 (ip), vehicle: Klucel (hydroxypropylcellulose) (HPC) 97 % of control

NNC(=S)Nc1ccccc1
inactive: endpoint: mean survival time, dose: 5.0 mg/kg/injection, schedule: Q01DX009 (ip), vehicle: saline with Tween-80 98 % of control
